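In this assay, cells in 96-well plates receive the compound at five concentrations for 48 hours. Endpoints are linearly interpolated between the surrounding concentrations. GI50 = concentration required for 50% inhibition of growth.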 Active and inactive are the calls of the source. Cut-off read from the data, not from the text of the source: active = GI50 up to about 1.1 µM and inactive = higher.
What was measured:
Test in all cases: NCI tumour cell line growth inhibition, 48 h
UACC-62 = test system: UACC-62
KM12 = test system: KM12
SF-539 = test system: SF-539
PC-3 = test system: PC-3
BT-549 = test system: BT-549
SF-268 = test system: SF-268
ACHN = test system: ACHN
Hs-578T = test system: Hs-578T
CAKI-1 = test system: CAKI-1
DU-145 = test system: DU-145
HCC 2998 = test system: HCC 2998
SK-MEL-5 = test system: SK-MEL-5
MDA-N = test system: MDA-N
UO-31 = test system: UO-31
MDA-MB-231 = test system: MDA-MB-231
A549 = test system: A549
SN12C = test system: SN12C
IGROV-1 = test system: IGROV-1
HOP-62 = test system: HOP-62

SMILES | GI50 (UACC-62) | GI50 (KM12) | GI50 (SF-539) | GI50 (PC-3) | GI50 (BT-549) | GI50 (SF-268) | GI50 (ACHN) | GI50 (Hs-578T) | GI50 (CAKI-1) | GI50 (DU-145) | GI50 (HCC 2998) | GI50 (SK-MEL-5) | GI50 (MDA-N) | GI50 (UO-31) | GI50 (MDA-MB-231) | GI50 (A549) | GI50 (SN12C) | GI50 (IGROV-1) | GI50 (HOP-62)
O=C(/C=C/c1ccccc1)CCC1C(=O)c2ccccc2C1=O | > 100 µM (inactive) | > 100 µM (inactive) | > 100 µM (inactive) | > 100 µM (inactive) | > 100 µM (inactive) | > 100 µM (inactive) | > 100 µM (inactive) | > 100 µM (inactive) | > 100 µM (inactive) | > 100 µM (inactive) | > 100 µM (inactive) | > 100 µM (inactive) | 43.8 µM (inactive) | > 100 µM (inactive) | > 100 µM (inactive) | > 100 µM (inactive) | > 100 µM (inactive) | > 100 µM (inactive) | 
Cc1csc(NC23CC4CC(CC(C4)C2)C3)[n+]1C(P(=O)([O-])O)P(=O)(O)O (stereo not drawn) | > 100 µM (inactive) | > 100 µM (inactive) | > 100 µM (inactive) | > 100 µM (inactive) | > 100 µM (inactive) | > 100 µM (inactive) | > 100 µM (inactive) | > 100 µM (inactive) | > 100 µM (inactive) | > 100 µM (inactive) | > 100 µM (inactive) | > 100 µM (inactive) | > 100 µM (inactive) | > 100 µM (inactive) | > 100 µM (inactive) | > 100 µM (inactive) |  | > 100 µM (inactive) | > 100 µM (inactive)
O=C1C[C@@H](Sc2ccccc2)C2(OCCO2)[C@H]2ON3CCC[C@@H]3[C@@H]12 | 10.9 µM (inactive) | 4.4 µM (inactive) | 2.87 µM (inactive) | 4.55 µM (inactive) | 6.53 µM (inactive) | 2.95 µM (inactive) | 3.4 µM (inactive) | 2.77 µM (inactive) | 4.42 µM (inactive) | 2.55 µM (inactive) | 8 µM (inactive) |  | 2.7 µM (inactive) | 1.94 µM (inactive) | 3.06 µM (inactive) | 10.3 µM (inactive) | 2.33 µM (inactive) | 2.24 µM (inactive) | 3.16 µM (inactive)
Cc1ccc2c(c1)SSSSS2 | 18.3 µM (inactive) | 18.9 µM (inactive) |  | 22.5 µM (inactive) | 19.8 µM (inactive) | 25.8 µM (inactive) | 18.4 µM (inactive) | 26.9 µM (inactive) | 21 µM (inactive) | 16.6 µM (inactive) | 17.7 µM (inactive) | 19.1 µM (inactive) | 23.4 µM (inactive) | 16.3 µM (inactive) | 25.6 µM (inactive) | 20.4 µM (inactive) | 16.5 µM (inactive) | 19.3 µM (inactive) | 20.2 µM (inactive)
Nc1ccc(Nc2c3ccccc3nc3ccccc23)cc1 | 1.77 µM (inactive) | 8.05 µM (inactive) | 3.7 µM (inactive) | 4.75 µM (inactive) | > 10 µM (inactive) | > 10 µM (inactive) | 1.89 µM (inactive) | 7.55 µM (inactive) | 2.91 µM (inactive) | 4.92 µM (inactive) | > 10 µM (inactive) | 3.86 µM (inactive) | 5.12 µM (inactive) |  | 5.81 µM (inactive) | 3.15 µM (inactive) | 2.88 µM (inactive) | 6.65 µM (inactive) | 4.32 µM (inactive)
COC(=O)c1ccccc1/C=C1\Cc2ccc3ccccc3c2C1C (stereo not drawn) | 57 µM (inactive) | 41.4 µM (inactive) | > 100 µM (inactive) | 60.7 µM (inactive) | 51.8 µM (inactive) | > 100 µM (inactive) | > 100 µM (inactive) | 34.6 µM (inactive) | > 100 µM (inactive) | > 100 µM (inactive) | > 100 µM (inactive) | 20.9 µM (inactive) | 43.6 µM (inactive) | 42.1 µM (inactive) | > 100 µM (inactive) | 51.3 µM (inactive) | 98.9 µM (inactive) | > 100 µM (inactive) | 
CC1(C)OC(=S)N(c2ccccc2)C12C=Cc1cc3ccccc3cc1O2 (stereo not drawn) | > 100 µM (inactive) | > 100 µM (inactive) |  | 44.2 µM (inactive) | > 100 µM (inactive) | > 100 µM (inactive) | > 100 µM (inactive) | > 100 µM (inactive) | > 100 µM (inactive) | > 100 µM (inactive) | > 100 µM (inactive) | > 100 µM (inactive) | > 100 µM (inactive) | > 100 µM (inactive) | > 100 µM (inactive) | > 100 µM (inactive) | > 100 µM (inactive) | 6.28 µM (inactive) | > 100 µM (inactive)
COc1cc2c(cc1OC)[C@H](C)N1CCc3cc(OC)c(OC)cc3[C@@H]1C2 | > 100 µM (inactive) | > 100 µM (inactive) | > 100 µM (inactive) | > 100 µM (inactive) | > 100 µM (inactive) | > 100 µM (inactive) | > 100 µM (inactive) | > 100 µM (inactive) | > 100 µM (inactive) | > 100 µM (inactive) | > 100 µM (inactive) | > 100 µM (inactive) | > 100 µM (inactive) | > 100 µM (inactive) | > 100 µM (inactive) | > 100 µM (inactive) | > 100 µM (inactive) | > 100 µM (inactive) | 
COc1cc2[nH]c(=O)[nH]c2c2c(C)c[nH]c12 | > 100 µM (inactive) | > 100 µM (inactive) |  | > 100 µM (inactive) | > 100 µM (inactive) | > 100 µM (inactive) | > 100 µM (inactive) | > 100 µM (inactive) | > 100 µM (inactive) | > 100 µM (inactive) | > 100 µM (inactive) | > 100 µM (inactive) | > 100 µM (inactive) | > 100 µM (inactive) | > 100 µM (inactive) | > 100 µM (inactive) | > 100 µM (inactive) | > 100 µM (inactive) | > 100 µM (inactive)
O=Cc1cn(CCCCCCCCCCCCn2cc(C=O)c3ccccc32)c2ccccc12 | > 100 µM (inactive) |  | > 100 µM (inactive) | 33.3 µM (inactive) | > 100 µM (inactive) | > 100 µM (inactive) | 4.88 µM (inactive) | 4.04 µM (inactive) | > 100 µM (inactive) | > 100 µM (inactive) | > 100 µM (inactive) | 0.611 µM (active) | > 100 µM (inactive) | > 100 µM (inactive) | > 100 µM (inactive) | 56 µM (inactive) | > 100 µM (inactive) | > 100 µM (inactive) | > 100 µM (inactive)
O=C(O)COCC(=O)N(CCOCCN(Cc1ccccc1)C(=O)COCC(=O)O)Cc1ccccc1 | > 100 µM (inactive) | > 100 µM (inactive) | > 100 µM (inactive) | > 100 µM (inactive) | > 100 µM (inactive) | > 100 µM (inactive) | > 100 µM (inactive) | > 100 µM (inactive) | > 100 µM (inactive) | > 100 µM (inactive) | > 100 µM (inactive) | > 100 µM (inactive) | > 100 µM (inactive) |  | > 100 µM (inactive) | > 100 µM (inactive) | > 100 µM (inactive) | > 100 µM (inactive) | > 100 µM (inactive)

— ChEMBL document CHEMBL1201862, “PubChem BioAssay data set” (2004)
